Consider 28 molecules from ChEMBL document CHEMBL5244202, “Structural evolution of toll-like receptor 7/8 agonists from imidazoquinolines to imidazoles” (RSC Med Chem, 2021).

pEC50: −log10 of the molar value.

Assay [1] deals with T1, Toll-like receptor 7 (Homo sapiens, UniProt Q9NYK1).
T1 sequence (Q9NYK1 whole entry): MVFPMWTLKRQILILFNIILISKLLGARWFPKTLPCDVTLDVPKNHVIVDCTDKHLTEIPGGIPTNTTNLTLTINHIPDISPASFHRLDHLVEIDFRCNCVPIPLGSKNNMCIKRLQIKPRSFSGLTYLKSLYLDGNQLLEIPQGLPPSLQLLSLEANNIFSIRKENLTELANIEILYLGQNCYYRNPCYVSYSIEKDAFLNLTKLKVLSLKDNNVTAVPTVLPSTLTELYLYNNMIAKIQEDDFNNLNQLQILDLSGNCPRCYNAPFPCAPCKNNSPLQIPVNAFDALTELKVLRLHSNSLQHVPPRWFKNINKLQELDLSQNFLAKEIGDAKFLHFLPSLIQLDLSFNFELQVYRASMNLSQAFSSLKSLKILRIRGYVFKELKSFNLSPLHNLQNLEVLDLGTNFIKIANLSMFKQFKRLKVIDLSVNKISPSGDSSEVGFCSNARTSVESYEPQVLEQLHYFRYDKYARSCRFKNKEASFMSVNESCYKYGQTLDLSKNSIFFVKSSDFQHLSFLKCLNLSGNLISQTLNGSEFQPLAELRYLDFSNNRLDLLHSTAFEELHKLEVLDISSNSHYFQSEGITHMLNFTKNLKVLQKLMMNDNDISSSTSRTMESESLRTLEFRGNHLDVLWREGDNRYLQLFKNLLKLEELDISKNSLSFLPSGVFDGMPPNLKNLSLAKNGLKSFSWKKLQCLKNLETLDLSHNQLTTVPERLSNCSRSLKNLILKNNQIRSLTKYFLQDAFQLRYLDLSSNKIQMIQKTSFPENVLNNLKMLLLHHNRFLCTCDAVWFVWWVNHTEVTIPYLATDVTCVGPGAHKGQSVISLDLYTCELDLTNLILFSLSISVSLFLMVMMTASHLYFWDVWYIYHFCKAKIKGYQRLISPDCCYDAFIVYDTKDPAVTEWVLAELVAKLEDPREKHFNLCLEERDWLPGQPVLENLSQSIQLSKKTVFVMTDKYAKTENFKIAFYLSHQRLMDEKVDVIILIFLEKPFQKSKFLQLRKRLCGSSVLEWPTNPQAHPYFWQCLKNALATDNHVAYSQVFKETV
Nature of the assay: Agonist activity at human TLR7 in HEK-Blue hTLR7 cells assessed as activation of NFkappaB by SEAP reporter gene based spectrophotometry assay. The assay is classed as cell-based.

Assay [2] has as its target T2, Toll-like receptor 8 (Homo sapiens, UniProt Q9NR97).
T2 sequence (Q9NR97 whole entry): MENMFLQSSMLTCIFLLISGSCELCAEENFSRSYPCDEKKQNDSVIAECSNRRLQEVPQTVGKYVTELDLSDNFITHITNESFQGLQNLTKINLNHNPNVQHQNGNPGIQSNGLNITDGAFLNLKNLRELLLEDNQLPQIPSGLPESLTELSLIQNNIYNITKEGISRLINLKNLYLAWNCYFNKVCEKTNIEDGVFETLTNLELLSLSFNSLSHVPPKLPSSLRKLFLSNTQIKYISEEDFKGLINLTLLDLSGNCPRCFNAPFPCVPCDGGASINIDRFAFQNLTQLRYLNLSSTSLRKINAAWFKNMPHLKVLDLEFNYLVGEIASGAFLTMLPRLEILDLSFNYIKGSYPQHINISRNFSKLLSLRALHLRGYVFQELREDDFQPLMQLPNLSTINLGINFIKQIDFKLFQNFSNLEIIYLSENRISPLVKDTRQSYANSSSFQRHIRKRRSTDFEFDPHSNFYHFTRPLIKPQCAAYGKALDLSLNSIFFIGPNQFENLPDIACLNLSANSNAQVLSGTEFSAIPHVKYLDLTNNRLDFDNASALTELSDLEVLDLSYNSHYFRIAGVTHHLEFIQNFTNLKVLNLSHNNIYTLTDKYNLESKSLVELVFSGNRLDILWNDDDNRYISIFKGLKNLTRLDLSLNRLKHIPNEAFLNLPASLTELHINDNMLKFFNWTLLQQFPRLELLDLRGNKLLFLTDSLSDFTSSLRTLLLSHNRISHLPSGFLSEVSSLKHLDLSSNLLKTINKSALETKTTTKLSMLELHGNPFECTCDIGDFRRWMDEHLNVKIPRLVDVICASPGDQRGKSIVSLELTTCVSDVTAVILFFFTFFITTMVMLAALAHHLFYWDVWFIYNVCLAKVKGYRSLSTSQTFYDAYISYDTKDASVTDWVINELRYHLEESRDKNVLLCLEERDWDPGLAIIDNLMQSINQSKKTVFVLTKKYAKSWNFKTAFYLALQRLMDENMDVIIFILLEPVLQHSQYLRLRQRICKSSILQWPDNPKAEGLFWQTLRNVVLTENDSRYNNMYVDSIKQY
Nature of the assay: Agonist activity at human TLR8 transfected in HEK293 cells assessed as induction of SEAP production incubated overnight. The assay is classed as cell-based.

In assay [3] the target is T1, Toll-like receptor 7. Nature of the assay: Agonist activity at recombinant human TLR7 transfected in HEK293 cells assessed as induction of SEAP production incubated overnight by SEAP reporter gene based assay. In kind it is cell-based. On the technique in general: In a reporter assay the amount or activity of a reporter protein is the signal.
The target in assay [4] is T1, Toll-like receptor 7. Put plainly: Agonist activity at TLR7 (unknown origin).
Assay [5] addresses T2, Toll-like receptor 8. Nature of the assay: Agonist activity at human TLR8 in HEK-Blue hTLR8 cells assessed as activation of NFkappaB by SEAP reporter gene based spectrophotometry assay. In kind it is cell-based. To be noted: hek-blue htlr8.
The target in assay [6] is T2, Toll-like receptor 8. Nature of the assay: Agonist activity at TLR8 (unknown origin).
Assay [7] has as its target T1, Toll-like receptor 7. Nature of the assay: Agonist activity at human TLR7 transfected in HEK293 cells assessed as induction of SEAP production incubated overnight by SEAP reporter gene based assay. In kind it is cell-based.
For assay [8], the target named is T2, Toll-like receptor 8. Nature of the assay: Agonist activity at human TLR8 (27 to 287 residues) in HEK-Blue hTLR8 cells assessed as induction of NFkappaB by SEAP reporter gene based spectrophotometry assay. The assay is classed as cell-based.
The nature of assay [9]: Induction of IFN production in C3H/HeJ mouse splenocytes incubated for 18 hrs. The assay is classed as functional. To be noted: Splenocyte, read-out: MEC.

On to `Cc1nc2c(N)nc3ccccc3c2s1`, for which the pEC50 (commonly the negative decadic logarithm of the EC50, by convention in mol/L) on Toll-like receptor 7 [1] (hek-blue htlr7) was 4.99.

For `CCC[C@@H](CO)Nc1nc(N)nc(C)c1Cc1ccc(CN2CCNCC2)cc1OC`, the pEC50 at Toll-like receptor 8 [2] is 5.28; at Toll-like receptor 7 [3], 7.20.

Regarding `CCCCc1nc2c(N)nc(NCc3cccnc3)cc2n1Cc1ccccc1`, at Toll-like receptor 7 [1], the pEC50 is 6.60.

As to `CCCCNc1nc(N)nnc1OC(C)C`, the pEC50 at Toll-like receptor 7 [4] is 5.08.

As for `CCC[C@@H](CCO)Nc1nc(N)nc(C)c1Cc1ccc(CNC2CNC2)cc1OC`, the negative-log EC50 (pEC50) at Toll-like receptor 8 [2] is less than 5.00; at Toll-like receptor 7 [3], 7.71.

Regarding `CCC[C@@H](CCO)Nc1nc(N)nc(C)c1Cc1ccc(CNCC(N)=O)cc1OC`, the pEC50 was less than 5.00 on Toll-like receptor 8 [2] and 7.35 on Toll-like receptor 7 [3].

Turning to `CCc1nc2c(N)nc3ccccc3c2s1`, the results for the pEC50 on Toll-like receptor 7 [1] (hek-blue htlr7) and at Toll-like receptor 8 [5] were 5.29 and 6.09, respectively.

In the case of `CCC[C@@H](CCO)Nc1nc(N)nc(C)c1Cc1ccc(CNCCC(N)=O)cc1OC`, the pEC50 is less than 5.00 at Toll-like receptor 8 [2] and 7.09 at Toll-like receptor 7 [3].

As for `CCCCNc1nc(N)nnc1OCc1cccnc1`, the pEC50 on Toll-like receptor 7 [4] was 5.77.

With `CCCCc1nc2c(NC(=O)CCC)nc3ccccc3c2s1`, the pEC50 at Toll-like receptor 7 [1] (hek-blue htlr7) is 6.31; at Toll-like receptor 8 [5], 6.38.

Consider `CCC[C@H](CCO)Nc1nc(N)nnc1OCc1nccc(OC)c1OC`, for which the pEC50 on Toll-like receptor 8 [6] is 6.25; at Toll-like receptor 7 [4], 6.62.

For the molecule `COCCc1nc2c(N)nc3ccccc3c2n1CCCCN(CCCN1CCOCC1)Cc1cccc(OCC(=O)OC(C)(C)C)c1`, the pEC50 at Toll-like receptor 7 [7] was 6.94.

On to `CCCCNc1nc(N)nnc1OCCOC`, for which the pEC50 at Toll-like receptor 8 [6] is 6.00; on Toll-like receptor 7 [4], 5.32.

Take `CCC[C@@H](CCO)Nc1nc(N)nc(C)c1Cc1ccc(CNCCO)cc1OC`: the pEC50 on Toll-like receptor 8 [2] is less than 5.00; at Toll-like receptor 7 [3], 8.01.

For `COc1cc2ccccc2nc1N`, on Toll-like receptor 8 [8], the pEC50 is 4.00.

For `CC(C)Oc1cc2ccccc2nc1N`, the pEC50 at Toll-like receptor 8 [8] is 4.00.

`CCCCNc1nc(N)nnc1OCc1ccccc1F` gave a pEC50 at Toll-like receptor 7 [4] of 6.12.

Regarding `CCCc1nc2c(N)nc3ccc(N=[N+]=[N-])cc3c2s1`, the negative logarithm of the EC50 (pEC50) on Toll-like receptor 7 [1] (hek-blue htlr7) is 4.99; on Toll-like receptor 8 [5], 5.69.

Molecule `CCCC[C@H](CCO)Nc1nc(N)nnc1OC` gave a pEC50 at Toll-like receptor 7 [4] of 5.11.

With `CCOC(=O)COc1cccc(CN(CCCn2c(CCOC)nc3c(N)nc4ccccc4c32)C(=O)CN(CC)CC)c1`, the pEC50 at Toll-like receptor 7 [7] is 7.26.

Take `CCC[C@@H](CCO)Nc1nc(N)nc(C)c1Cc1ccc(CNC)cc1OC`: the values for the pEC50 on Toll-like receptor 8 [2] and at Toll-like receptor 7 [3] were 5.19 and 8.52, respectively.

On to `CCCCOc1nc(N)c2[nH]c(=O)n(Cc3ccccc3)c2n1`, for which, in [9], the minimal effective concentration stood at 0.001 µM.

`CCCCc1nc(N)c2nc(O)n(Cc3ccccc3)c2n1`: in [9], the minimal effective concentration was found to be 0.03 µM.

With `CCC[C@@H](CCO)Nc1nc(N)nc(C)c1Cc1ccc(CNC2CN(C)C2)cc1OC`, the pEC50 was less than 5.00 at Toll-like receptor 8 [2] and 7.72 on Toll-like receptor 7 [3].

In the case of `CCOC(=O)COc1ccc(CN(CCCn2c(CCOC)nc3c(N)nc4ccccc4c32)C(=O)CN2CCCC2)cc1`, the pEC50 at Toll-like receptor 7 [7] was 6.83.

Consider `CC[C@H](C)c1nc2c(N)nc3ccccc3c2s1`, for which, at Toll-like receptor 8 [5], the pEC50 was 5.56.

As to `CCCCCc1nc2c(N)nc3ccccc3c2s1`, the values for the negative logarithm of the EC50 (pEC50) on Toll-like receptor 7 [1] (hek-blue htlr7) and on Toll-like receptor 8 [5] were 5.38 and 5.71, respectively.

On to `CCCc1nc2c(NC(=O)CN=[N+]=[N-])nc3ccccc3c2s1`, for which the pEC50 is 5.45 at Toll-like receptor 7 [1] (hek-blue htlr7) and 5.92 at Toll-like receptor 8 [5].
